Measured values from the supplement of paper PMC5844555.

Key:
Experiment in all cases: 3' UTR reporter interaction score (median-centred robust z-score of log2 firefly/Renilla activity); higher = less repression of the 3' UTR reporter
Details in all cases: HEK293T; 48 h
[1] = test system: TP53
Method in brief: (§1)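 For the interaction score, the firefly/Renilla ratio was log-transformed, expressed as a robust z-score per plate using median and median absolute deviation, and median-centred per miRNA; a more negative score indicates interaction. These scores come from at least two independent screens, averaged. Each screen used HEK293T cells at 10,000/well in 96-well plates, co-transfected with DharmaFECT Duo carrying 100 ng luc2P 3' UTR reporter, 20 ng pRL-TK and 2.5 pmol miRNA mimic, with luciferase read at 48 h.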

[2] = test system: MYT1L
Method in brief: as §1

[3] = test system: PHOX2B
Method in brief: as §1

[4] = test system: NOTCH1
Method in brief: as §1

[5] = test system: RB1
Method in brief: as §1

[6] = test system: FBXW7
Method in brief: as §1

[7] = test system: MYC
Method in brief: as §1

[8] = test system: MYB
Method in brief: as §1

[9] = test system: ZEB2
Method in brief: as §1

[10] = test system: HRAS
Method in brief: as §1

[11] = test system: PHF6
Method in brief: as §1

[12] = test system: BRCA2
Method in brief: as §1

[13] = test system: MYCN
Method in brief: as §1

[14] = test system: EZH2
Method in brief: as §1

Sequence | 3' UTR reporter interaction score [1] | 3' UTR reporter interaction score [2] | 3' UTR reporter interaction score [3] | 3' UTR reporter interaction score [4] | 3' UTR reporter interaction score [5] | 3' UTR reporter interaction score [6] | 3' UTR reporter interaction score [7] | 3' UTR reporter interaction score [8] | 3' UTR reporter interaction score [9] | 3' UTR reporter interaction score [10] | 3' UTR reporter interaction score [11] | 3' UTR reporter interaction score [12] | 3' UTR reporter interaction score [13] | 3' UTR reporter interaction score [14]
AAAACGGUGAGAUUUUGUUUU | -0.39 | -0.225 | 1.39 | -1.23 | -1.03 | 0.403 | 0.0587 | 0.737 | 0.0197 | -0.201 | -0.604 | -0.776 | 0.148 | –
AAACCGUUACCAUUACUGAGUUU | 0.812 | 1.68 | -1.13 | -0.371 | -0.236 | -0.543 | -0.972 | – | 0.377 | -0.683 | 0.358 | 0.378 | -0.445 | 0.71
AAAGUGCUGUUCGUGCAGGUAG | 0.803 | -1.47 | 1.63 | 0.83 | 0.0538 | 0.872 | -0.0736 | -1.38 | -0.0741 | -0.586 | 0.684 | -0.619 | -0.359 | –
AAAGUGCUUCCUUUUAGAGGC | 0.32 | -0.527 | 0.798 | – | 0.31 | 0.555 | -0.277 | -0.24 | 0.738 | -0.194 | -0.00693 | -0.921 | 0.692 | -0.74
AAAGUGCUUCUCUUUGGUGGGUU | 0.499 | -0.567 | 1.31 | 0.392 | 0.799 | 0.685 | -0.26 | -0.782 | 0.955 | 0.266 | -0.0534 | 0.0116 | – | -1.56
AACAUUCAUUGCUGUCGGUGGG | 0.443 | -0.567 | 1.46 | -0.249 | 0.0638 | 0.243 | 0.124 | 0.0638 | 0.114 | -0.854 | 0.159 | 0.08 | – | 0.0847
AAUAUAACACAGAUGGCCUGU | 0.139 | -0.827 | 0.795 | 0.989 | -1.07 | 0.647 | 0.886 | -0.573 | -0.625 | 0.155 | – | -0.646 | – | 0.634
AAUUGCACGGUAUCCAUCUGUA | -1.12 | – | -1.97 | -0.751 | 1.19 | -6.72 | 1.4 | 0.44 | -3.51 | 0.777 | 0.891 | 0.52 | 0.653 | -0.862
ACUUUAACAUGGAAGUGCUUUCU | 0.121 | 0.13 | -0.178 | -0.363 | – | – | 0.48 | -0.31 | -0.795 | -0.0142 | -0.0712 | 0.253 | -0.0564 | 0.735
AGAUCAGAAGGUGAUUGUGGCU | 0.622 | – | -0.105 | 0.74 | -1 | 1.15 | -0.231 | -2.02 | -0.441 | 0.462 | 1.45 | 0.117 | -0.0131 | 0.782
AGGCACCAGCCAGGCAUUGCUCAGC | 0.444 | 0.327 | -2.66 | -0.1 | 0.342 | -2.35 | -0.313 | 0.348 | -0.849 | -0.411 | 0.574 | – | -0.343 | 1
AUGUAUAAAUGUAUACACAC | 1.38 | – | 0.0154 | -1.28 | -0.33 | 0.329 | -0.0623 | -0.578 | -1.04 | 0.0947 | -0.348 | 0.174 | -0.0355 | 0.905
CAAAAACCACAGUUUCUUUUGC | -0.323 | -0.79 | 0.417 | -0.821 | 0.189 | -0.0284 | 0.0969 | -1.54 | -0.847 | -1.1 | 0.268 | – | 0.186 | 0.177
CAAGAACCUCAGUUGCUUUUGU | 0.405 | -0.132 | -0.954 | -0.974 | – | -0.0454 | 0.13 | 0.335 | -1.03 | 1.03 | -0.741 | -0.995 | – | 0.928
CACGCUCAUGCACACACCCAC | 1.21 | 0.0877 | -1.58 | 0.398 | -0.279 | -1.61 | 0.38 | – | 1.26 | – | -3.04 | 0.0228 | -0.371 | 0.315
CAGUGCAAUAGUAUUGUCAAAGC | -0.369 | -1.35 | -0.134 | 1.2 | 1.9 | 0.383 | -0.162 | -1.09 | -0.0807 | – | 1.54 | 0.327 | 0.282 | -0.946
CAUUAUUACUUUUGGUACGCG | 0.0619 | -0.409 | 0.437 | -0.00418 | 0.974 | 0.0986 | -0.4 | 0.454 | 0.0582 | 0.225 | -0.223 | -0.00235 | – | 0.119
CUCCUGACUCCAGGUCCUGUGU | 0.342 | – | -0.0385 | 0.232 | 0.546 | -0.332 | 1.1 | 0.427 | -1.51 | 0.32 | -4.57 | 0.612 | -0.0476 | -0.51
GGCAGGUUCUCACCCUCUCUAGG | -0.0357 | -0.84 | -1.4 | 0.309 | – | -1.49 | 0.583 | – | -0.268 | 0.517 | -0.606 | -0.0484 | 0.446 | 0.162
GGCUAGCAACAGCGCUUACCU | 0.432 | 0.317 | 0.192 | -0.508 | 0.235 | 0.164 | -0.989 | -0.249 | 0.537 | -0.311 | -0.414 | -0.392 | 0.326 | –
GGUCCAGAGGGGAGAUAGG | 0.186 | 0.466 | -0.69 | 0.349 | -0.274 | -0.103 | -0.219 | -0.834 | -0.0605 | – | 0.39 | -0.441 | -0.926 | -0.024
